IC50 data for one molecule are collected here from publication PMC5532207, “Honokiol suppresses formyl peptide-induced human neutrophil activation by blocking formyl peptide receptor 1” (Scientific Reports, 2017).

The experiment addresses T1, Formyl peptide receptor 1 (FPR1) (Homo sapiens, UniProt P21462).
T1 construct: human neutrophils; also hFPR1 (NM_002029)-transfected HEK-293 and differentiated THP-1 cells
T1 sequence (P21462 1-350): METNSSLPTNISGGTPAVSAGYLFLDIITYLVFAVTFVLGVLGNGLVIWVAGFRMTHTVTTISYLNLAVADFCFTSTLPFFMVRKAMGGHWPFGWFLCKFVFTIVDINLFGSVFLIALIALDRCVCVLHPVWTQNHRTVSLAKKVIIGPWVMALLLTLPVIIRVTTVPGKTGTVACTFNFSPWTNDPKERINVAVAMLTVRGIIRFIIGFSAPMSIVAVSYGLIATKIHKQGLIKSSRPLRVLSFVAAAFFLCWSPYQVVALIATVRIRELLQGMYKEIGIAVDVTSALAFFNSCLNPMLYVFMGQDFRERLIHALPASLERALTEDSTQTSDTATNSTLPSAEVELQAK
In words: displacement of fluorescent FPR1 ligand fNLFNYK on intact cells, flow cytometry. It counts as cell-based.

The structures appear in SMILES notation.

The molecule `C=CCc1ccc(O)c(-c2ccc(O)c(CC=C)c2)c1` [H, Honokiol] came in with an IC50 of 7.44 ± 0.97 µM.
